Measurements as given in ChEMBL document CHEMBL1201862, “PubChem BioAssay data set” (2004).
Active and inactive are the calls of the source.

How the values were obtained:
[1] = target: Neuropeptides B/W receptor type 1 (Homo sapiens, UniProt P48145); assay: Fluorescence-based dose response cell-based high throughput screening assay to identify antagonists of the G-protein coupled receptor 7 (GPR7). [Related pubchem assays: 1952 (Screening assay (GPR7 antagonists).), 1880 (Summary AID.)]; assay type: functional
[2] = target: Melanin-concentrating hormone receptor 1 (Homo sapiens, UniProt Q99705); assay: Fluorescence-based counterscreen for antagonists of the G-protein coupled receptor 7 (GPR7): cell-based high throughput dose response assay to identify antagonists of the melanin-concentrating hormone receptor 1 (MCHR1).; assay type: functional
[3] = target: T1, Oxysterols receptor LXR-beta (Homo sapiens, UniProt P55055); assay type: functional, cell-based;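 also: agonist activity at LXR measured by a cell-based luminescence readout across a dose range, run as a counterscreen for daf-12 agonists; HEK293 cells with Gal4-LXR fusion and GAL4-driven luciferase reporter; potency for activation of Gal4-LXR reporter so compounds are agonists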
T1 sequence (P55055 whole entry): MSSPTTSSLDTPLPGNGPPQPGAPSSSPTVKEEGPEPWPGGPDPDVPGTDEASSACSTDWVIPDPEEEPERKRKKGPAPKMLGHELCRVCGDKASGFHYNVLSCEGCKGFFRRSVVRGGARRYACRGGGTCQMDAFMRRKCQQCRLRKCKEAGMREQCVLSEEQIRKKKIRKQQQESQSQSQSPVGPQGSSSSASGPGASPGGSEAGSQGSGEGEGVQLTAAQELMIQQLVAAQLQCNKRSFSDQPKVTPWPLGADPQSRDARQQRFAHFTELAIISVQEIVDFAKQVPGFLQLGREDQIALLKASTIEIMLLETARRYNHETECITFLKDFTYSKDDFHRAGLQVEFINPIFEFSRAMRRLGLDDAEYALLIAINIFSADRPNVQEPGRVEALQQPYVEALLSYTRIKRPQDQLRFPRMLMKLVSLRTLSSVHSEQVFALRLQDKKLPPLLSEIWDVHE

[4] = target: Tyrosine-protein phosphatase non-receptor type 12 (Homo sapiens, UniProt Q05209); assay: SAR Selectivity Analysis of small molecule inhibitors of PEST using pCAP in a fluorescence assay. [Related pubchem assays (depositor defined):AID1779, AID1784, AID2135]; assay type: functional
[5] = target: T2, Dual specificity protein phosphatase 3 (Homo sapiens, UniProt P51452); assay: SAR VHR1 absorbance Assay for In Vitro dose response studies. [Related pubchem assays (depositor defined):AID1654, AID1661, AID1878, AID1992, AID2004]
[6] = target: T2, Dual specificity protein phosphatase 3; assay: SAR VHR1 Fluorescent Assay for In Vitro dose response studies. [Related pubchem assays (depositor defined):AID1654, AID1661, AID1878, AID1992, AID2004, AID2070, AID2085]; assay type: functional
[7] = target: T3, Tyrosine-protein phosphatase non-receptor type 22 (Homo sapiens, UniProt Q9Y2R2); assay: SAR LYP1 Fluorescent Assay using OMFP substrate for In Vitro dose response studies - Set 3. [Related pubchem assays (depositor defined):AID1779, AID1784, AID2140, AID2686]; assay type: functional
T3 sequence (Q9Y2R2 whole entry): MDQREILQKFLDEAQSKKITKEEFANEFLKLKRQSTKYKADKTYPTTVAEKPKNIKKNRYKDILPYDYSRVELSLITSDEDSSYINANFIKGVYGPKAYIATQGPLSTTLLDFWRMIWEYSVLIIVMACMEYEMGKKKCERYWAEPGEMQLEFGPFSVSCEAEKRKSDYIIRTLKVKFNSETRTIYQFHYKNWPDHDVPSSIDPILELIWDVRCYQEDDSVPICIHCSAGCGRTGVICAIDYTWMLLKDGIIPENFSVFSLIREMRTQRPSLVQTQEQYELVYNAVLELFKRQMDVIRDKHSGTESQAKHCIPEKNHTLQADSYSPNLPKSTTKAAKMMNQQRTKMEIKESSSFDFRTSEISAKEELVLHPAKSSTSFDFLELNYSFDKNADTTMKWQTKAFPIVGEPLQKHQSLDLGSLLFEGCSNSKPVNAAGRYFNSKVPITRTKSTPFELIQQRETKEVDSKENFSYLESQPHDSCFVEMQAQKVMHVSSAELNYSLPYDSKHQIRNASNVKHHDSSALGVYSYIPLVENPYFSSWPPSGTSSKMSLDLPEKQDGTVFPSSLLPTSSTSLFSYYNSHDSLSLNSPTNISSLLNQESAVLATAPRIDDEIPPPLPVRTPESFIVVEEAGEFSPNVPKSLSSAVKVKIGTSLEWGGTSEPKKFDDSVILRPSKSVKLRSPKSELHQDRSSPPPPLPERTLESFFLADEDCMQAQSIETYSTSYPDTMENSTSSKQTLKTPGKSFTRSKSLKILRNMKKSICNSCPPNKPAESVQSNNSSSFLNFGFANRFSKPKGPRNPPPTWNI

[8] = target: T2, Dual specificity protein phosphatase 3; assay: MOA VHR1 Fluorescent secondary assay for identification of redox-state modulating compounds. [Related pubchem assays (depositor defined):AID1654, AID1661, AID1878, AID1957]
[9] = target: T4, Tyrosine-protein phosphatase non-receptor type 7 (Homo sapiens, UniProt P35236); assay: redox-active compounds inhibiting HePTP phosphatase – biochemical, fluorescence, mechanism study (AID 2068); assay type: functional
T4 sequence (P35236 whole entry): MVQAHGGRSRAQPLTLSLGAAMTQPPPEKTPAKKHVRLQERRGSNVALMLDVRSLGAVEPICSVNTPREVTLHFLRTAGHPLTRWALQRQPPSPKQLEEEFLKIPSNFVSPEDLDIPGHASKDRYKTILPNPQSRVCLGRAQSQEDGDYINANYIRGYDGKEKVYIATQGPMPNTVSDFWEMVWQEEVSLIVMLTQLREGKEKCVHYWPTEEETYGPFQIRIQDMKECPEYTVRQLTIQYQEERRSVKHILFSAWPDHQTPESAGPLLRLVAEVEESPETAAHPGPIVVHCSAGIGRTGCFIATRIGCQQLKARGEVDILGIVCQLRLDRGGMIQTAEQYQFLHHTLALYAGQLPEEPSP

[10] = target: T4, Tyrosine-protein phosphatase non-receptor type 7; assay: inhibition of hematopoietic tyrosine phosphatase HePTP – biochemical, set 2, SAR follow-up (AID 449736); assay type: functional
[11] = target: T3, Tyrosine-protein phosphatase non-receptor type 22; assay: inhibition of lymphoid tyrosine phosphatase LYP – biochemical, pCAP fluorogenic substrate, fluorescence, set 3, SAR follow-up (AID 449727); assay type: functional
[12] = target: T5, Dual specificity protein phosphatase 6 (Rattus norvegicus, UniProt Q64346); assay type: functional;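 also: confirmatory in vitro dose-response testing of MKP-3 inhibition; recombinant His-tagged MKP-3 made in E. coli BL21 with OMFP substrate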
T5 sequence (Q64346 whole entry): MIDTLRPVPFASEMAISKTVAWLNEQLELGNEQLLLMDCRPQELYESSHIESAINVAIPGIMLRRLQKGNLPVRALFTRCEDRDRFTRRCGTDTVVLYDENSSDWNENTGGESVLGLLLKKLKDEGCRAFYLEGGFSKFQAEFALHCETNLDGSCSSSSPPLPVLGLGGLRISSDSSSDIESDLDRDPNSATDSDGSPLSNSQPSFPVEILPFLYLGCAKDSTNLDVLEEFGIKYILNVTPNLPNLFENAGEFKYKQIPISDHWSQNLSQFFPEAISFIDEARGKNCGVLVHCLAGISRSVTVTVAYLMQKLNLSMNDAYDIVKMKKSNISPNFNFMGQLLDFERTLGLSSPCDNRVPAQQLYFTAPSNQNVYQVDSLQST

[13] = target: DNA (cytosine-5)-methyltransferase 1 (Homo sapiens, UniProt P26358); assay: inhibition of DNA methylation by DNMT1 – biochemical, fluorescent molecular beacon, confirmation (AID 602386); assay type: functional
[14] = target: T6, Low molecular weight phosphotyrosine protein phosphatase (Homo sapiens, UniProt P24666); assay type: functional; conditions: read-out: IC50_Mean;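 also: Dose-response confirmation assay measuring inhibition of LMPTP enzyme activity by fluorescence intensity read-out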
T6 sequence (P24666 whole entry): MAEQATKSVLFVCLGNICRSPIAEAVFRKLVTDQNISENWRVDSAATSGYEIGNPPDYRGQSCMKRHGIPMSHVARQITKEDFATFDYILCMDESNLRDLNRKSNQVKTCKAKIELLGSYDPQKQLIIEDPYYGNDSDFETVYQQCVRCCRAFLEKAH

[15] = target: Peroxisome proliferator-activated receptor gamma (Homo sapiens, UniProt P37231); assay: competitive ligand displacement at PPARg – biochemical, TR-FRET, LanthaScreen, PPARg partial agonist project, dose response (AID 504446)
[16] = target: T2, Dual specificity protein phosphatase 3; assay: inhibition constants for human DUSP3 – biochemical, colorimetric, SAR follow-up (AID 2004)
[17] = Luminescence Cell-Based Dose Retest to Confirm Inhibitors of Cancer Stem Cells. [Related pubchem assays (depositor defined):AID2717, AID2721]; assay type: functional; conditions: Homo sapiens
[18] = target: Neurotensin receptor type 1 (Homo sapiens, UniProt P30989); assay type: functional;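 also: Image-based confirmatory dose-response assay measuring agonist activity at NTR1; NTR1-expressing U2OS osteosarcoma cells imaged for beta-arrestin GFP spot formation; agonist potency where compounds increase beta-arrestin recruitment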
[19] = target: Acyl-homoserine lactone acylase PvdQ (Pseudomonas aeruginosa (strain LESB58), UniProt Q9I194); assay: PvdQ acylase enzyme activity blockers – biochemical, fluorescence, plate reader and imaging, cherry-picks, dose response (AID 493231)
[20] = target: Signal transducer and activator of transcription 3 (Homo sapiens, UniProt P40763); assay: STAT3 activation with BCL3 mRNA and toxicity – cell-based, […], BCL3 qPCR, cytotoxicity, late-stage follow-up, panel member STAT3 Activation (AID 2049)
[21] = target: T7, Eukaryotic translation initiation factor 2-alpha kinase 3 (Homo sapiens, UniProt Q9NZJ5); assay: Dose response cell-based high-throughput screening assay to measure PERK inhibition. [Related pubchem assays: 1416 ]; assay type: functional
[22] = target: T7, Eukaryotic translation initiation factor 2-alpha kinase 3; assay: Counterscreen assay for PERK inhibitors: Dose response cell-based high throughput screening assay to measure inhibition of PERK at 6 hours. [Related pubchem assays: 1522, 1416 ]; assay type: functional
[23] = target: Scavenger receptor class B member 1 (Mus musculus, UniProt Q61009); assay: mouse SR-BI DiI-HDL uptake blockers – ldlA[mSR-BI] cells, fluorescence, cherry pick, dose response (AID 493194); assay type: functional, cell-based;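 also: cellular uptake of fluorescent DiI-labeled HDL measured as cell fluorescence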
[24] = viability loss in HeLa cells – cytotoxicity control for MgcRacGAP inhibitor project, dose response (AID 624300); assay type: functional
[25] = target: T8, Rac GTPase-activating protein 1 (Homo sapiens, UniProt Q9H0H5); assay: blockers of MgcRacGAP-driven Rac1 GTP hydrolysis – biochemical, ADP Hunter fluorescence, primary and confirmatory, confirmation (AID 624330); assay type: functional
T8 sequence (Q9H0H5 whole entry): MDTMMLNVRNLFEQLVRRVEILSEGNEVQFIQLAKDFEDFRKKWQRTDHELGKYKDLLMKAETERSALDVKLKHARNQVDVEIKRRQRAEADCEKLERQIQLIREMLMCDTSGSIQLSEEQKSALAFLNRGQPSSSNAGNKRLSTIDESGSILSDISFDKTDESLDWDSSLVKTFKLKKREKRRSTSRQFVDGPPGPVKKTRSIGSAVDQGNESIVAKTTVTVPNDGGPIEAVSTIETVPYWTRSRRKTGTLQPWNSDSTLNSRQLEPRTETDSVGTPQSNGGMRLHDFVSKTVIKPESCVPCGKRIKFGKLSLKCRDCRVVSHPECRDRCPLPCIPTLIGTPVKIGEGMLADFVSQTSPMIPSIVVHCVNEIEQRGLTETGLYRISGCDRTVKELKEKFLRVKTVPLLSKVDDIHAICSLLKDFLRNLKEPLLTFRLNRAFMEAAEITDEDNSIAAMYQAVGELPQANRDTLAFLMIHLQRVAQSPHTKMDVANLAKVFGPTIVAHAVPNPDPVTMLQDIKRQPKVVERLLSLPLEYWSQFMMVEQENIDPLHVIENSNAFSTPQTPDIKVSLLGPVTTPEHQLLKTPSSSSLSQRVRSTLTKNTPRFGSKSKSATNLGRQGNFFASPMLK

T2 sequence (P51452 whole entry): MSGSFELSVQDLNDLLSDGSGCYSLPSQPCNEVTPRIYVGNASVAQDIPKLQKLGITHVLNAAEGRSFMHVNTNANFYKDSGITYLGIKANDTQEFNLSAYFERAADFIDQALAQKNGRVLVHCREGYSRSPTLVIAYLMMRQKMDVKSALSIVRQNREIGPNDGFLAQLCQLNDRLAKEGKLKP
T7 sequence (Q9NZJ5 whole entry): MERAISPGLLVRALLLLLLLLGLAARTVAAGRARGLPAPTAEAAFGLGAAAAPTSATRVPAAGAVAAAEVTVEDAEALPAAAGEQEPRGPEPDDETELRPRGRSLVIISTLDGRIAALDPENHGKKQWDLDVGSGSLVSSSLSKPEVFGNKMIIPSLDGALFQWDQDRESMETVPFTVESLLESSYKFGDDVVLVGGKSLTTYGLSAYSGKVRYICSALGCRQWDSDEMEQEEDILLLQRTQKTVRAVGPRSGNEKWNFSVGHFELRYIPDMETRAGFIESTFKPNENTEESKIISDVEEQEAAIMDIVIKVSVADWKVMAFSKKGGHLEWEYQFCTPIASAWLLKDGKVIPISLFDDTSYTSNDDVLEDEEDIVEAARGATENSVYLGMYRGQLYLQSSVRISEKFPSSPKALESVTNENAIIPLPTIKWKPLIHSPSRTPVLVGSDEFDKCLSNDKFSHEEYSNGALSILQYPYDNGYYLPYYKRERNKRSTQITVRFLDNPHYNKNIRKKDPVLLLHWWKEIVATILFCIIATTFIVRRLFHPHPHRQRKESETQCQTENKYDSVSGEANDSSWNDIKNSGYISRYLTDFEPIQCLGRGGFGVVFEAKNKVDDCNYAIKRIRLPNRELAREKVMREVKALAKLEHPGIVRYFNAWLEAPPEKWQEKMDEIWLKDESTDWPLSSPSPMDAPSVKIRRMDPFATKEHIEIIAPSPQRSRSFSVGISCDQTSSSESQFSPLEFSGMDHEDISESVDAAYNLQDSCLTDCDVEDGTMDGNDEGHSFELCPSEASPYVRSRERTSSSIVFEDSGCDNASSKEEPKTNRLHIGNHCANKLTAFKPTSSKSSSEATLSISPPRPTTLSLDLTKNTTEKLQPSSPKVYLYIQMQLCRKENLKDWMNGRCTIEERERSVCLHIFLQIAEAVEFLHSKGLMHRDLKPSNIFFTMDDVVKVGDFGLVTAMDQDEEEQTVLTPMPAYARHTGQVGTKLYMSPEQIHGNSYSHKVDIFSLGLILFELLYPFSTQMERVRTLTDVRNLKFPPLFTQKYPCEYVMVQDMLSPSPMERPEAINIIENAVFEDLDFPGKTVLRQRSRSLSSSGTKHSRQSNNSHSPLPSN
DNA (cytosine-5)-methyltransferase 1, sequence (P26358 whole entry): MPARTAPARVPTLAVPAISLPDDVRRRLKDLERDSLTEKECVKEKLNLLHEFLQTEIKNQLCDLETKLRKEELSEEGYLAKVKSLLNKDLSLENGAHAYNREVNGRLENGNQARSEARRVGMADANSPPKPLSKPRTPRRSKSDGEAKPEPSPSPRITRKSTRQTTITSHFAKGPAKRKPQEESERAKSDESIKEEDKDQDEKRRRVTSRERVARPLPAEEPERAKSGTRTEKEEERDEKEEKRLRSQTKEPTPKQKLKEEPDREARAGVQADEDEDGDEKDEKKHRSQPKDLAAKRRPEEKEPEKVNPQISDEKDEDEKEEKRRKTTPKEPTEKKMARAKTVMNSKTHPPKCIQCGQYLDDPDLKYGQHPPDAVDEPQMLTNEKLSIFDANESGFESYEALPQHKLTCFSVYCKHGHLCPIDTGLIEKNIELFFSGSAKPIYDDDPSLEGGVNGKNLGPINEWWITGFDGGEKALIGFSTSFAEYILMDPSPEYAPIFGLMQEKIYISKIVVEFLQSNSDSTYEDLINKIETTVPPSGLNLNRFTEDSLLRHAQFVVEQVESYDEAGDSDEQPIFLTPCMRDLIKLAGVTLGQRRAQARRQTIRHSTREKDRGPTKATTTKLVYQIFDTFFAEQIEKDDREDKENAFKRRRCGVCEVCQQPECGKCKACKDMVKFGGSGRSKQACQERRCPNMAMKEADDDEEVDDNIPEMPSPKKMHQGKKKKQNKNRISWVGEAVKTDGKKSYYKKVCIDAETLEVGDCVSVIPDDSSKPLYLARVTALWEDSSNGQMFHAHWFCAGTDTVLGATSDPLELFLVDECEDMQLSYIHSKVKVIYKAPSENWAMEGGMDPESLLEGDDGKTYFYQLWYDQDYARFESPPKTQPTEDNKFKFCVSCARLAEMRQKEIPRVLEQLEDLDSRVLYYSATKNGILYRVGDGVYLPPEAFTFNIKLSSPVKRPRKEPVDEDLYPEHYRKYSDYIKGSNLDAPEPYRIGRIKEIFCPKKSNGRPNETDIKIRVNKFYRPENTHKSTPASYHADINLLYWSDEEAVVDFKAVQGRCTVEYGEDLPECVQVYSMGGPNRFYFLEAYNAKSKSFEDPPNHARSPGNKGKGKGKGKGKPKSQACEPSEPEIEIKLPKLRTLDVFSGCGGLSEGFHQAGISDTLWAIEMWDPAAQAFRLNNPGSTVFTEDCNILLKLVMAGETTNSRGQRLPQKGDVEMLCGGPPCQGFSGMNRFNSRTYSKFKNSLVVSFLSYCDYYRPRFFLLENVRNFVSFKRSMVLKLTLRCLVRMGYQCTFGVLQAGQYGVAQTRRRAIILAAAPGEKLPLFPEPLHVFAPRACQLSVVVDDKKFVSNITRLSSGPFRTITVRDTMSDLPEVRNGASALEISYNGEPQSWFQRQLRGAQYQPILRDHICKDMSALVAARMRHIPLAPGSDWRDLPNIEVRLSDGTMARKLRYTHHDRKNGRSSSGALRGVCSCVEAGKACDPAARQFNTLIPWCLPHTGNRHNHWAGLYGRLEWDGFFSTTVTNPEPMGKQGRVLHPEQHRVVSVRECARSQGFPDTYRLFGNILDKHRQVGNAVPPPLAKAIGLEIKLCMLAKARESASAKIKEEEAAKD
Neurotensin receptor type 1, sequence (P30989 whole entry): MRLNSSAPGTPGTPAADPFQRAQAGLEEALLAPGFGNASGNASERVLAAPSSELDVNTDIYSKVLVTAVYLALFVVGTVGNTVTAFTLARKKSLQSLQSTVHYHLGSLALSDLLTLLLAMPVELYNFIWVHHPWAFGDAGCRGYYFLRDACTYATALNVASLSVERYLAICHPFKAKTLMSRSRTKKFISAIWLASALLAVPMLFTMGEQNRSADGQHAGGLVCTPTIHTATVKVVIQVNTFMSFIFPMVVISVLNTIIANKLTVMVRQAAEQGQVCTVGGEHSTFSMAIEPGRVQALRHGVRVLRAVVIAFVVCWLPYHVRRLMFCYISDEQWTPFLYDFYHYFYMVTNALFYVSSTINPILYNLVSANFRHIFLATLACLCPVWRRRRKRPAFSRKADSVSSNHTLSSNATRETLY
Tyrosine-protein phosphatase non-receptor type 12, sequence (Q05209 whole entry): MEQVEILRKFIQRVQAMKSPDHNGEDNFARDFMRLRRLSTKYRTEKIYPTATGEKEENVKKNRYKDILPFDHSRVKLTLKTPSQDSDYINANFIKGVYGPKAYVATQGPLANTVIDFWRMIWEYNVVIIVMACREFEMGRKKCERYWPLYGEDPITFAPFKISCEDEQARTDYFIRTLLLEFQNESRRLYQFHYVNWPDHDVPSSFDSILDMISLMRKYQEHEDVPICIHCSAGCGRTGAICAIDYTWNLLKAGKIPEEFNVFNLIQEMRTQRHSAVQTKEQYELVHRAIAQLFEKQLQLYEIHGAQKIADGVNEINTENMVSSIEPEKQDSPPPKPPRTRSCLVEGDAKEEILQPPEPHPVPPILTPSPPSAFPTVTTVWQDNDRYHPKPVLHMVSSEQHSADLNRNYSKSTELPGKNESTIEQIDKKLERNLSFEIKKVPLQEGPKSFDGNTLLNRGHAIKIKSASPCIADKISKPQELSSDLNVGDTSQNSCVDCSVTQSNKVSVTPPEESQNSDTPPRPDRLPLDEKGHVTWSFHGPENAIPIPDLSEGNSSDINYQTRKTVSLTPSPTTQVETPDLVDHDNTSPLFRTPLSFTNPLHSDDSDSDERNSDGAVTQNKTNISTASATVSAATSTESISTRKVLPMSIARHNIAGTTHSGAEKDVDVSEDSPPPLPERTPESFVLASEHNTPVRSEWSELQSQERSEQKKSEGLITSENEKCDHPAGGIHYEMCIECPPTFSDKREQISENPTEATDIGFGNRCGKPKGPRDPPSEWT
Scavenger receptor class B member 1, sequence (Q61009 whole entry): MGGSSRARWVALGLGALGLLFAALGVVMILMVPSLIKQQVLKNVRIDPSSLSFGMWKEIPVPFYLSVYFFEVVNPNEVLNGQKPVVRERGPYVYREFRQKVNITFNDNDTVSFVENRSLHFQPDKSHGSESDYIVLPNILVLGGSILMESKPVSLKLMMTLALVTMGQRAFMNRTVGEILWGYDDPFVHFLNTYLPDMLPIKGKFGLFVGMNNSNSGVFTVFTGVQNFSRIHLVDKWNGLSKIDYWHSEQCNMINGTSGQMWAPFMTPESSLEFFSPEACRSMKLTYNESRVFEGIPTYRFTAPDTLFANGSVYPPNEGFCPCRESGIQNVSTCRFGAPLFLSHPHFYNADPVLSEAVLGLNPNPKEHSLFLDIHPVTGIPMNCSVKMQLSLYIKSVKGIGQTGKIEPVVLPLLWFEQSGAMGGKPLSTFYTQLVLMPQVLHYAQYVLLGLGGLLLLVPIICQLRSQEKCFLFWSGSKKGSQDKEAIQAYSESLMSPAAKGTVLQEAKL
Melanin-concentrating hormone receptor 1, sequence (Q99705 whole entry, the tested form may be a part): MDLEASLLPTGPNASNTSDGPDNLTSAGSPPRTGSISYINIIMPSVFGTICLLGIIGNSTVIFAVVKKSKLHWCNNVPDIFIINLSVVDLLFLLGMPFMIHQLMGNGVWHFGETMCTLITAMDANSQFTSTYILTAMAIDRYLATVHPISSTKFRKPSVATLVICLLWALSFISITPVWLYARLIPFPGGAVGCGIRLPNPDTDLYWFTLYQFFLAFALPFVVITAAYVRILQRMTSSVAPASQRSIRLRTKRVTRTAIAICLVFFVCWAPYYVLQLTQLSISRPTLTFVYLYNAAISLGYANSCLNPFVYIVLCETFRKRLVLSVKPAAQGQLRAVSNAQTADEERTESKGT

For `CS(=O)(=O)c1ccc2nc(NC(=O)Nc3ccccc3F)sc2c1`, the IC50 [1] was > 43.8 µM (not active), the IC50 [2] was > 43.8 µM (not active) and the EC50 [3] was > 67.5 µM (inactive).
With `CC1=C(C(=O)OC(C)C)C(c2ccc(Cl)cc2)n2c(sc(=Cc3ccc(OCC(=O)O)cc3)c2=O)=N1` (stereo not given) the IC50 [4] was 1.68 µM (active), the IC50 [5] was 0.967 µM (active) and the IC50 [6] was 12.3 µM (active). The IC50 [7] was 4.01 µM (active), the IC50 [8] was 1.93 µM (active) and the IC50 [9] was 0.391 µM (active). For the same compound, the IC50 [10] was 0.304 µM (active), the IC50 [11] was 3.63 µM (active) and the IC50 [12] was 41.8 µM (active). The IC50 [13] was 5.43 µM (active) and the IC50 [14] was 6.66 µM (active).
With `O=C(O)CCN1C(=O)/C(=C/c2ccccc2Cl)SC1=S` the IC50 [15] was 2 µM (active).
For `Cc1cc(/C=C2/SC(=S)NC2=O)c(C)n1-c1cccc(Cl)c1`, the Ki [16] was 82 µM (inactive).
In the case of `CC1=C(C(=O)OC2CCCCCCC2)C(c2cc3c(cc2Br)OCO3)CC(=O)N1` (stereo not given), the AC50 [17] is reported as 3.59 µM (active) and the EC50 [18] is reported as 18.2 µM (active).
With `O=[N+]([O-])c1ccc(N2CCSCC2)cc1` the AC50 [19] was > 100 µM (inactive).
With `CN(C(=O)c1cc(C2CC2)on1)c1ccccc1` the EC50 [20] was > 55.7 µM (inactive).
With `CCCCOC(=O)C1C2C=C[C@]3(CN(CCCOC)C(=O)[C@H]13)O2` (stereo not given in full) the EC50 [21] was > 55.7 µM (not active) and the EC50 [22] was > 55.7 µM (not active).
With `C=C(CN(C)C)C(=O)c1ccc(OC2OC(COC(C)=O)C(OC(C)=O)C(OC(C)=O)C2OC(C)=O)cc1` (stereo not given) the AC50 [23] was 6.87 µM (active), the CC50 [24] was 100 µM (active) and the IC50 [25] was 162 µM (active).
